{
  "source": "patent US12447184B1",
  "about": "“Lactic acid bacteria and use thereof” (UNIVERSITY-INDUSTRY COOPERATION GROUP OF KYUNG HEE …, priority 2017, dated 2025)",
  "key": {"C57BL/6 mouse": {"system": "C57BL/6 mouse", "experiment": "Elevated plus maze (EPM) test", "type": "in vivo", "conditions": "for OE (%) / OT (%): immobilization stress", "from_the_text": "In order to induce a mental disorder such as anxiety, depression, stress or the like, a mouse was fixed to a 3×10 cm cylindrical-shaped immobilization stress apparatus, such that the mouse may not move therein at all.\nParticularly, in order to prepare a mouse with anxiety induced by immobilization stress, the said mouse, which had been fixed to the apparatus, was repeatedly subjected to immobilization stress five times, in such a way that the mouse was held with its head up for two hours once every other day, and then a behavioral experiment was performed in two hours after a final immobilization stress.\n(§1) Also, in order to prepare a mouse with depression induced by immobilization stress, the said mouse, which had been fixed to the apparatus, was repeatedly subjected to continuous immobilization stress once daily for two days, in such a way that the mouse was held with its head up for 12 hours. A lactic acid bacterium was administered once daily for five days, and a behavioral experiment was performed in one hour after a final administration.\nIn order to induce a mental disorder such as anxiety, depression, stress or the like, a mouse was administered ampicillin (100 mg/kg) for two days in a row. An anxiety behavior was measured in 10 days after administration.\nFor a mouse model with immobilization stress induced, a lactic acid bacterium or physiological saline solution was administered thereto depending on an experimental group once daily for three days from Day 7 after starting the immobilization stress. For a mouse model with antibiotic stress induced, a lactic acid bacterium or physiological saline solution was administered thereto depending on an experimental group once daily for three days from Day 7 after starting the antibiotic stress.\n(§2) An anxiety behavior was measured in five hours after administering the lactic acid bacterium or physiological saline solution, and blood indicators (corticosterone, IL-6, TNF-α, etc.) were measured by collecting blood in one hour after finishing an elevated plus maze test.\nAn elevated plus maze is an experimental apparatus to measure a degree of a mental disorder such as stress, anxiety or the like. An elevated plus maze experimental apparatus used in the present experiment is a black plexiglass apparatus, in which two open arms (30×7 cm) and two enclosed arms (30×7 cm) with 20 cm-high walls stand 50 cm high above a floor, each extending 7 cm away from a center platform. In the present test, a mouse was placed in the elevated plus maze in a room, where a video camera of 20 Lux was installed high up there, and then a movement of the mouse was recorded.\nParticularly, a C57BL/6 mouse (male, 19-22 g) was placed in the middle of the elevated plus maze, in such a way that a head of the mouse faced toward an open arm. Time spent in open and closed arms as well as the number of arm entries were measured for five minutes. An arm entry was defined as a case in which the mouse entered an arm with all four feet.\nOut of a whole test time, the time spent in open arms (OT) was calculated via [Time spent in open arms (OT)/(Time spent in open arms (OT)+Time spent in closed arms)]×100. […] After the end of each behavioral experiment, remaining smell was eliminated by means of 70% ethanol.\nAccording to a known interpretation of test results, it was interpreted that a mental disorder symptom such as anxiety, depression or the like occurs, if OT and OE decrease."}, "mouse [1]": {"system": "mouse", "experiment": "Light/dark transition test", "type": "in vivo", "conditions": "immobilization stress model", "method": "An apparatus used for a light/dark transition test consisted of a bright area (21×42×25 cm, 390 Lux white diode) and a dark area (21×42×25 cm, 2 Lux), which were of a size and partitioned off with a door (7.5×7.5 cm). A mouse was placed in a bright area and observed for five minutes, during which time in bright area and the number of transitions into the bright area were measured. After the end of each behavioral experiment, remaining smell was eliminated by means of 70% ethanol.\nAccording to a known interpretation of test results, it was interpreted that a mental disorder symptom such as anxiety, depression or the like occurs, if the time in bright area and the number of transitions into the bright area decrease."}, "mouse [2]": {"system": "mouse", "experiment": "Forced swimming test (FST)", "type": "in vivo", "conditions": "depressed mouse model", "method": "as §1\nAccording to a method of Porsolt et al. (Porsolt R D, Le Pichon, Jalfre M (1977) Depression: A new animal model sensitive to antidepressant treatments, Nature, Vol. 266; pp. 730-732), water at 25±1° C. was filled into a water tank 40 cm in height and 20 cm in diameter, until a water level reached 25 cm high. A laboratory mouse was put into each tank and stayed there for total six minutes, out of which first two minutes were not measured as an adaptive time, and then for the last four minutes, an immobility time of the laboratory animal was measured. The immobility means a state that the mouse is floating in the water motionlessly except the least movement to keep its head only above the water."}, "mouse [3]": {"system": "mouse", "experiment": "Tail suspension test (TST)", "type": "in vivo", "conditions": "depressed mouse model", "method": "as §1\nAccording to a method of Steru et al. (Steru L, Chermat R, Thierry B, Simon P (1985) The tail suspension test: A new method for screening antidepressants in mice, Psychopharmacology, Vol. 85; pp. 367-370), a mouse was hanged up in a container 35 cm in diameter and 50 cm in height by placing a fixing device approximately 1 cm from the tip of a tail thereof of a mouse, such that the mouse was suspended 50 cm above a floor. For six minutes in total, an immobility time of the laboratory animal was measured."}, "[4]": {"system": "corticosterone, IL-6, TNF-α and lipopolysaccharide in blood", "experiment": "Blood indicators (corticosterone, IL-6, TNF-α, lipopolysaccharide)", "type": "in vivo, mouse", "conditions": "for BC (ng/mL), corticosterone in blood: immobilization stress", "method": "as §2\nBlood was diluted 10 times with PBS, then centrifuged, and then a resulting supernatant was treated at […] for 10 minutes. A resulting supernatant was filtered with a 0.45 μm filter, then filtered again with a 0.22 μm filter, and then used as a specimen. For the said specimen, lipopolysaccharide was measured by means of Limulus amoebocyte lysate (LAL) assay kit (Cape Cod Inc., East Falmouth, MA, U.S.A.).\n(§3) Inflammatory reaction biomarkers such as p-p65, p65, iNOS, COX-2 and β-actin were measured by means of a western blotting method. Particularly, 50 μg of supernatant, which had been obtained by the same method as shown in the said experiment for measuring the activity of myeloperoxidase (MPO), was taken and then immune blotting was performed thereon. Also, an expression level of cytokines was measured by means of ELISA kit, and LPS was measured by means of LAL assay kit.\n(§4) In two hours after performing a last behavioral experiment on a depressed mouse, the mouse was anesthetized, and corticosterone in blood was measured by means of ELISA, and a brain derivated neurotrophic factor (BDNF) and NF-κB of a brain and NF-κB of a colon were measured by means of immunoblotting by the same method as shown in Experimental Example 5 above, wherein the results thereof are as shown in a following table 14."}, "[5]": {"system": "NF-κB (p-p65/p65) and BDNF in a hippocampus", "experiment": "NF-κB activity and BDNF expression in hippocampus (immunoblotting)", "type": "in vivo", "conditions": "depressed mouse", "method": "as §3, §4"}, "colon [6]": {"system": "colon", "experiment": "Colitis indicators (colon length, myeloperoxidase, inflammatory indicators of the colon)", "type": "in vivo, mouse", "conditions": "immobilization stress", "method": "200 μl of 10 mM potassium phosphate buffer, pH 7.0 containing 0.5% hexadecyl trimethyl ammonium bromide was put into 100 mg of a colon tissue, and then subjected to homogenization. A resulting mixture was centrifuged for 10 minutes on condition of 4° C. and 10,000 g, so as to obtain a supernatant. 50 μl of the supernatant was put into 0.95 ml of a reaction solution (containing 1.6 mM tetramethyl benzidine and 0.1 mM H2O2), then subjected to reaction at 37° C., and then an observance was […] measured at 650 nm. An activity of the said myeloperoxidase (MPO) was calculated with a resulting reactant H2O2 1 μmol/ml=1 unit.\nas §3\nIn two hours after performing a last behavioral experiment on an anxious mouse in Experimental Example 1, the mouse was anesthetized, and a colon length and activations of MPO, COX-2, TNF-α and NF-Kb were measured by the same method as shown in Experimental Example 5, wherein the results thereof are as shown in a following table 15."}, "mouse [7]": {"system": "mouse", "experiment": "Object recognition test", "type": "in vivo", "conditions": "mouse given LPS from E. coli 0.5 mg/kg/day i.p. for five days", "method": "(§5) On a following day after intraperitoneally administering LPS isolated from E. coli (0.5 mg/kg/day) to a mouse for five days, lactic acid bacteria were administered thereto, and an effect of lactic acid bacteria on improving a cognitive function was identified in such a way that an object recognition test and a Y maze test were performed and BDNF in a hippocampus was measured by immunoblotting, wherein the results thereof are as shown in a following table 18.\nParticularly, as an object recognition test method, two objects (A, A′) of the same shape and size were fixed into a box (40×40×40 cm), of which outside is not visible from the inside, then a mouse was allowed to start moving at the center of the box, and then the number of touching the two objects was recorded for 10 minutes. In 24 hours later, one of the two objects was replaced with a new one (A, B), and then the number of touching an old one and a new one was recorded and quantified."}, "mouse [8]": {"system": "mouse", "experiment": "Y maze test", "type": "in vivo", "conditions": "mouse given LPS from E. coli 0.5 mg/kg/day i.p. for five days; spontaneous alteration", "method": "as §5\nAlso, as a Y maze test method, a test apparatus consisted of the three identical arms (8 cm in length, […], 14 cm in height), each positioning at a certain angle of 120°. The mouse was placed at the end of one arm and allowed to freely move in a Y maze for eight minutes, after which the number and order of entering respective arms were measured, so as to evaluate a spontaneous alteration (%). The alteration was defined as an alphabetical character order, in which the mouse sequentially entered into three arms, i.e. ABC, BCA, CAB, etc. % alteration=[Total number of alterations]/[Total number of arm entries−2]×100"}, "BDNF in a hippocampus": {"system": "BDNF in a hippocampus", "experiment": "BDNF in a hippocampus by immunoblotting (LPS-treated mouse)", "type": "in vivo", "conditions": "mouse given LPS from E. coli 0.5 mg/kg/day i.p. for five days", "method": "as §5"}, "colon [9]": {"system": "colon", "experiment": "Colitis indicators (colon length, myeloperoxidase, inflammatory indicators of the colon)", "type": "in vivo, mouse", "conditions": "antibiotic stress"}, "[10]": {"conditions": "antibiotic stress (ampicillin 100 mg/kg, two days)"}},
  "data": [
    {"smiles": "O=C1CC2(CCCC2)CC(=O)N1CCCCN1CCN(c2ncccn2)CC1", "note": "[Buspirone]", "values": [
      {"measurement": "OE (%)", "setting": "C57BL/6 mouse; Anxious mouse", "value": 33.8, "unit": "%"},
      {"measurement": "OT (%)", "setting": "C57BL/6 mouse; Anxious mouse, once daily for three days", "value": 16.7, "unit": "%"},
      {"measurement": "OE (%)", "setting": "C57BL/6 mouse; Depressive mouse", "value": 29.8, "unit": "%"},
      {"measurement": "OT (%)", "setting": "C57BL/6 mouse; Depressive mouse", "value": 15.7, "unit": "%"},
      {"measurement": "Open arm entries (%)", "setting": "C57BL/6 mouse; [10]", "value": 31.3, "unit": "%"},
      {"measurement": "Time spent in open arms (%)", "setting": "C57BL/6 mouse; [10]", "value": 14.1, "unit": "%"},
      {"measurement": "Number of transitions", "setting": "mouse [1]", "value": 19.6},
      {"measurement": "Time in bright area (%)", "setting": "mouse [1]", "value": 40.1, "unit": "%"},
      {"measurement": "Immobility time (%)", "setting": "mouse [2]", "value": 32.1, "unit": "%"},
      {"measurement": "Immobility time (%)", "setting": "mouse [3]", "value": 25.2, "unit": "%"},
      {"measurement": "BC (ng/mL), corticosterone in blood", "setting": "[4]; Anxious mouse", "value": 1.2, "unit": "ng/mL"},
      {"measurement": "BC (ng/mL), corticosterone in blood", "setting": "[4]; Depressive mouse", "value": 3.8, "unit": "ng/mL"},
      {"measurement": "Blood corticosterone", "setting": "[4]; [10]", "value": 1.6, "unit": "ng/mL"},
      {"measurement": "Blood corticosterone", "setting": "[4]; depressed mouse, ELISA, Table 14", "value": 3.8, "unit": "ng/mL"},
      {"measurement": "BDNF expression level", "setting": "[5]", "value": "− (− , <10%)"},
      {"measurement": "NF-kB activation inhibitory capacity", "setting": "[5]", "value": "− (− , <10%)"},
      {"measurement": "Colon length (cm)", "setting": "colon [6]; Anxious mouse", "value": 5.2, "unit": "cm"},
      {"measurement": "Inflammatory indicator inhibition rate COX-2", "setting": "colon [6]; anxious mouse, colon", "value": "+ (+, 10~30%)"},
      {"measurement": "Inflammatory indicator inhibition rate NF-κB", "setting": "colon [6]; anxious mouse, colon", "value": "+ (+, 10~30%)"},
      {"measurement": "Inflammatory indicator inhibition rate TNF-α", "setting": "colon [6]; anxious mouse, colon", "value": "+ (+, 10~30%)"},
      {"measurement": "MPO inhibitory capacity", "setting": "colon [6]; anxious mouse, colon", "value": "+ (+, 10~30%)"},
      {"measurement": "Object recognition test (%)", "setting": "mouse [7]", "value": 42.9, "unit": "%"},
      {"measurement": "Y maze test (%)", "setting": "mouse [8]", "value": 62.4, "unit": "%"},
      {"measurement": "Hippocampus BDNF expression capacity", "setting": "BDNF in a hippocampus", "value": "+ (+, 10~30%)"},
      {"measurement": "Colon length (cm)", "setting": "colon [9]", "value": 5.5, "unit": "cm"},
      {"measurement": "Inflammatory indicator inhibition rate COX-2", "setting": "colon [9]; colon", "value": "+ (+, 10~30%)"},
      {"measurement": "Inflammatory indicator inhibition rate NF-κB", "setting": "colon [9]; colon", "value": "+ (+, 10~30%)"},
      {"measurement": "Inflammatory indicator inhibition rate TNF-α", "setting": "colon [9]; colon", "value": "+ (+, 10~30%)"},
      {"measurement": "MPO inhibitory capacity", "setting": "colon [9]; colon", "value": "+ (+, 10~30%)"}
    ]}
  ]
}
